The first test addresses GST-tagged-Wee1 kinase (Homo sapiens, UniProt P30291). The test can be described thus: Wee1 time-resolved fluorescence equilibrium binding assay (displacement of Oregon Green-labeled ATP-competitive kinase probe).
Conditions: not given
The method, then:
Wee1 kinase was assayed using a time-resolved fluorescence equilibrium binding assay monitoring displacement of a rapidly reversible Oregon Green-labeled ATP-competitive kinase probe (N-(2-(2-(2-(4-(4-(5-chloro-4-(2-(1-hydroxycyclobutyl)thiazol-5-yl)-1H-pyrrolo[2,3-b]pyridin-2-yl)phenyl)piperazin-1-yl)ethoxy)ethoxy)ethyl)-2′,7′-difluoro-3′,6′-dihydroxy-3-oxo-3H-spiro[isobenzofuran-1,9′-xanthene]-5-carboxamide) by competitive Wee1 inhibitors.
GST-tagged-Wee1 kinase, sequence (P30291 whole entry): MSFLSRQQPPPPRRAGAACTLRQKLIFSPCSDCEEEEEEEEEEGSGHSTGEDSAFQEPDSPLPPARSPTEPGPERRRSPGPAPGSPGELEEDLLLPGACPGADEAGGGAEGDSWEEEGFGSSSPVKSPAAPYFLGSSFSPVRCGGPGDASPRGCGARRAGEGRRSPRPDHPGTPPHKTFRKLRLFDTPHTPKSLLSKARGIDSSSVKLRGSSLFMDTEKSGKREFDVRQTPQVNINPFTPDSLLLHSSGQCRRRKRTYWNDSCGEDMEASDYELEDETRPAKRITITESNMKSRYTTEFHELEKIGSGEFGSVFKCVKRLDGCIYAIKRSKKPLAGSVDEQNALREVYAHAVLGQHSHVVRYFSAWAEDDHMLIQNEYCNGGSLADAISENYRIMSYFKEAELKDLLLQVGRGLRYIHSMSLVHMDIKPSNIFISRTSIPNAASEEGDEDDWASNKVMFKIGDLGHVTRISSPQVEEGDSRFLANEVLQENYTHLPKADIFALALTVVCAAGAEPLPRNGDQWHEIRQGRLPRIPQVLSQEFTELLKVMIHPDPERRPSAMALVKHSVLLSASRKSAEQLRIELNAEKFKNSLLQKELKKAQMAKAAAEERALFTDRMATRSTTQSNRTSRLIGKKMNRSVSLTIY
Compound `COCc1nn(-c2c(Cl)cccc2Cl)c(=O)c2cnc(Nc3ccc(N4CCN(C)CC4)cc3)nc12` [Example 423, 6-(2,6-dichlorophenyl)-8-(methoxymethyl)-2-{[4-(4-methylpiperazin-1-yl)phenyl]amino}pyrimido[4,5-d]pyridazin-5(6H)-one] came in with a Ki of 0.7 nM. On the same count and under the same terms, the same measure for `C=CCn1nc(-c2ccco2)c2nc(Nc3ccc(CN(C)C)cc3)ncc2c1=O` [Example 137, 6-allyl-2-({4-[(dimethylamino)methyl]phenyl}amino)-8-(2-furyl)pyrimido[4,5-d]pyridazin-5(6H)-one]: 22 nM. On the same count and under the same terms, the value for `CN1CCN(c2ccc(Nc3ncc4c(=O)n(-c5c(Cl)cccc5Cl)nc(-c5ccc(Br)cc5)c4n3)cc2)CC1` [Example 276, 8-(4-bromophenyl)-6-(2,6-dichlorophenyl)-2-{[4-(4-methylpiperazin-1-yl)phenyl]amino}pyrimido[4,5-d]pyridazin-5(6H)-one] was 1.1 nM; that for `CCc1nn(-c2c(Cl)cccc2Cl)c(=O)c2cnc(Nc3ccc4c(c3)CN(C)C4)nc12` [Example 494, 6-(2,6-dichlorophenyl)-8-ethyl-2-[(2-methyl-2,3-dihydro-1H-isoindol-5-yl)amino]pyrimido[4,5-d]pyridazin-5(6H)-one] was 0.31 nM. In turn, `COc1cc(Nc2ncc3c(=O)n(-c4ccccc4C)nc(-c4ccccc4)c3n2)ccc1N1CCN(C(C)C)CC1` [Example 113, 2-{[4-(4-isopropylpiperazin-1-yl)-3-methoxyphenyl]amino}-6-(2-methylphenyl)-8-phenylpyrimido[4,5-d]pyridazin-5(6H)-one] came in with a Ki of 0.4 nM. For `Cc1nn(-c2c(Cl)cccc2Cl)c(=O)c2cnc(Nc3ccc(N4CCN(C)CC4)cc3)nc12` [Example 314, 6-(2,6-dichlorophenyl)-8-methyl-2-{[4-(4-methylpiperazin-1-yl)phenyl]amino}pyrimido[4,5-d]pyridazin-5(6H)-one], the Ki was 1.2 nM.

`CN1CCN(c2ccc(Nc3ncc4c(=O)n(-c5c(Cl)cccc5Cl)nc(-c5cnn(CCCl)c5)c4n3)cc2)CC1` [Example 200, 8-[1-(2-chloroethyl)-1H-pyrazol-4-yl]-6-(2,6-dichlorophenyl)-2-{[4-(4-methylpiperazin-1-yl)phenyl]amino}pyrimido[4,5-d]pyridazin-5(6H)-one] showed a Ki of 0.3 nM.

`Cc1cc(Nc2ncc3c(=O)n(-c4ccccc4C)nc(-c4cccs4)c3n2)ccc1N1CCN(C(C)C)CC1` [Example 119, 2-{[4-(4-isopropylpiperazin-1-yl)-3-methylphenyl]amino}-6-(2-methylphenyl)-8-(2-thienyl)pyrimido[4,5-d]pyridazin-5(6H)-one] returned a Ki of 1 nM. On to `Cc1nn(-c2c(Cl)cccc2Cl)c(=O)c2cnc(Nc3cc4c(cc3Cl)CNCC4)nc12` [Example 472, 2-[(7-chloro-1,2,3,4-tetrahydroisoquinolin-6-yl)amino]-6-(2,6-dichlorophenyl)-8-methylpyrimido[4,5-d]pyridazin-5(6H)-one], for which the Ki was 2.3 nM. In the case of `O=c1c2cnc(Nc3ccc4c(c3)CNCC4)nc2c(-c2nccs2)nn1-c1c(Cl)cccc1Cl` [Example 346, 6-(2,6-dichlorophenyl)-2-(1,2,3,4-tetrahydroisoquinolin-7-ylamino)-8-(1,3-thiazol-2-yl)pyrimido[4,5-d]pyridazin-5(6H)-one], affinity was put at a Ki of 0.21 nM. Take `Cc1nn(-c2c(Cl)cccc2Cl)c(=O)c2cnc(Nc3ccc4c(c3)CCN(C)C4)nc12` [Example 435, 6-(2,6-dichlorophenyl)-8-methyl-2-[(2-methyl-1,2,3,4-tetrahydroisoquinolin-6-yl)amino]pyrimido[4,5-d]pyridazin-5(6H)-one]: the Ki was found to be 0.46 nM. As to `CC1(C)CNCc2cc(Nc3ncc4c(=O)n(C5CCNCC5)nc(-c5ccccn5)c4n3)ccc21` [Example 305, 2-[(4,4-dimethyl-1,2,3,4-tetrahydroisoquinolin-7-yl)amino]-6-(piperidin-4-yl)-8-(pyridin-2-yl)pyrimido[4,5-d]pyridazin-5(6H)-one], the affinity corresponds to a Ki of 840 nM. The same measure, in the same setting: the same measure for `CC(=O)N1Cc2cc(Nc3ncc4c(=O)n(-c5c(Cl)cccc5Cl)nc(-c5ccccn5)c4n3)ccc2C2(CC2)C1` [Example 375, 2-[(2′-acetyl-2′,3′-dihydro-1′H-spiro[cyclopropane-1,4′-isoquinolin]-7′-yl)amino]-6-(2,6-dichlorophenyl)-8-(pyridin-2-yl)pyrimido[4,5-d]pyridazin-5(6H)-one]: 1.2 nM. Same read-out and setting: the same measure for `Cc1ccccc1-n1nc(-c2ccc(Cl)cc2Cl)c2nc(Nc3ccc(N4CCN(C)CC4)cc3)ncc2c1=O` [Example 41, 8-(2,4-dichlorophenyl)-6-(2-methylphenyl)-2-{[4-(4-methylpiperazin-1-yl)phenyl]amino}pyrimido[4,5-d]pyridazin-5(6H)-one]: 38 nM; for `CC(C)n1cc(-c2nn(-c3c(F)cccc3Cl)c(=O)c3cnc(Nc4ccc5c(c4)CNCC54CC4)nc23)cn1` [Example 335, 6-(2-chloro-6-fluorophenyl)-2-(2′,3′-dihydro-1′H-spiro[cyclopropane-1,4′-isoquinolin]-7′-ylamino)-8-[1-(propan-2-yl)-1H-pyrazol-4-yl]pyrimido[4,5-d]pyridazin-5(6H)-one]: 0.21 nM; for `O=c1c2cnc(Nc3ccc4c(c3)CNCC43CC3)nc2c(C(F)F)nn1-c1c(Cl)cccc1Cl` [Example 407, 6-(2,6-dichlorophenyl)-8-(difluoromethyl)-2-(2′,3′-dihydro-1′H-spiro[cyclopropane-1,4′-isoquinolin]-7′-ylamino)pyrimido[4,5-d]pyridazin-5(6H)-one]: 0.21 nM. `CC(C)n1cc(-c2nn(-c3c(Cl)cccc3Cl)c(=O)c3cnc(Nc4ccc5c(c4)CNCC54CC4)nc23)cn1` [Example 337, 6-(2,6-dichlorophenyl)-2-(2′,3′-dihydro-1′H-spiro[cyclopropane-1,4′-isoquinolin]-7′-ylamino)-8-[1-(propan-2-yl)-1H-pyrazol-4-yl]pyrimido[4,5-d]pyridazin-5(6H)-one]: the inhibition constant Ki was determined as 0.22 nM.

Consider `CN1CCN(c2ccc(Nc3ncc4c(=O)n(-c5c(Cl)cccc5Cl)nc(-c5cc[nH]n5)c4n3)cc2)CC1` [Example 231, 6-(2,6-dichlorophenyl)-2-{[4-(4-methylpiperazin-1-yl)phenyl]amino}-8-(1H-pyrazol-3-yl)pyrimido[4,5-d]pyridazin-5(6H)-one], for which the affinity corresponds to a Ki of 0.1 nM.

`C=CCn1nc(-c2cccs2)c2nc(Nc3ccc(S(=O)(=O)N4CCOCC4)cc3)ncc2c1=O` [Example 125, 6-allyl-2-{[4-(morpholin-4-ylsulfonyl)phenyl]amino}-8-(2-thienyl)pyrimido[4,5-d]pyridazin-5(6H)-one] returned a Ki of over 3140 nM. Compound `CN1Cc2cc(Nc3ncc4c(=O)n(-c5c(Cl)cccc5Cl)ncc4n3)ccc2C2(CC2)C1` [Example 324, 6-(2,6-dichlorophenyl)-2-[(2′-methyl-2′,3′-dihydro-1′H-spiro[cyclopropane-1,4′-isoquinolin]-7′-yl)amino]pyrimido[4,5-d]pyridazin-5(6H)-one] came in with a Ki of 0.2 nM. Same read-out and setting: the value for `CN1CCN(c2ccc(Nc3ncc4c(=O)n(-c5c(Cl)cccc5Cl)nc(-c5cccc(CNC6CCC6)c5)c4n3)cc2)CC1` [Example 158, 8-{3-[(cyclobutylamino)methyl]phenyl}-6-(2,6-dichlorophenyl)-2-{[4-(4-methylpiperazin-1-yl)phenyl]amino}pyrimido[4,5-d]pyridazin-5(6H)-one] was 0.2 nM; that for `CN1Cc2cc(Nc3ncc4c(=O)n(-c5c(Cl)cccc5Cl)nc(-c5cnn(C)c5)c4n3)ccc2C2(CC2)C1` [Example 149, 6-(2,6-dichlorophenyl)-2-[(2′-methyl-2′,3′-dihydro-1′H-spiro[cyclopropane-1,4′-isoquinolin]-7′-yl)amino]-8-(1-methyl-1H-pyrazol-4-yl)pyrimido[4,5-d]pyridazin-5(6H)-one] was 0.05 nM; that for `Cc1nn(-c2ccccc2Cl)c(=O)c2cnc(Nc3ccc4c(c3)CC(N(C)C)C4)nc12` (centres unmarked) [Example 484, 6-(2-chlorophenyl)-2-{[2-(dimethylamino)-2,3-dihydro-1H-inden-5-yl]amino}-8-methylpyrimido[4,5-d]pyridazin-5(6H)-one] was 0.17 nM.

`CN1CCN(c2ccc(Nc3ncc4c(=O)n(-c5ccccc5Cl)nc(-c5ccncn5)c4n3)cc2)CC1` [Example 178, 6-(2-chlorophenyl)-2-{[4-(4-methylpiperazin-1-yl)phenyl]amino}-8-(pyrimidin-4-yl)pyrimido[4,5-d]pyridazin-5(6H)-one] displayed a Ki of 2 nM. Still for that read-out and setting: the same measure for `COc1cc(Nc2ncc3c(=O)n(-c4ccccc4Cl)nc(-c4ccccc4)c3n2)ccc1N1CCN(C(C)C)CC1` [Example 207, 6-(2-chlorophenyl)-2-({3-methoxy-4-[4-(propan-2-yl)piperazin-1-yl]phenyl}amino)-8-phenylpyrimido[4,5-d]pyridazin-5(6H)-one]: 0.1 nM; for `Cc1ccccc1-c1nn(-c2c(Cl)cccc2Cl)c(=O)c2cnc(Nc3ccc(N4CCN(C)CC4)cc3)nc12` [Example 71, 6-(2,6-dichlorophenyl)-8-(2-methylphenyl)-2-{[4-(4-methylpiperazin-1-yl)phenyl]amino}pyrimido[4,5-d]pyridazin-5(6H)-one]: 0.2 nM.

Staying with this test, now noted: read-out: Wee-1 inhibition Ki.
As to “6-(2-chlorophenyl)-8-(2-furyl)-2-{[4-(4-methylpiperazin-1-yl)phenyl]amino}pyrimido[4,5-d]pyridazin-5(6H)-one [Example 33]”, the Ki was 0.3 nM.

As for “6-(2,6-dichlorocyclohexa-1,5-dien-1-yl)-2-[(3-{[2-(dimethylamino)ethyl]amino}phenyl)amino]-8-methylpyrimido[4,5-d]pyridazin-5(6H)-one [Example 514]”, the Ki is 0.41 nM. On to “3-{[6-(2,6-dichlorophenyl)-8-methyl-5-oxo-5,6-dihydropyrimido[4,5-d]pyridazin-2-yl]amino}benzoic acid [Example 521]”, for which the Ki is 97 nM.

A word on the Ki: it is the dissociation constant of the complex between target and ligand, obtained from inhibition or displacement.

For the origin of these results see patent US8796289B2 (AbbVie Inc., priority 2011, dated 2014).
